# From paper PMC11845331, “Teicoplanin pharmacokinetics in critically ill patients on extracorporeal organ support: a retrospective analysis” (Intensive Care Medicine Experimental, 2025)
# Legend:
# [1] = Teicoplanin plasma trough levels (TCtrough) from therapeutic drug monitoring during ECMO support; assay type: in vivo, human
# Text: This single-center retrospective study included critically ill, adult (> 18 years old) patients hospitalized at the tertiary intensive care unit (ICU) of the University Hospital Zurich, Switzerland, an academic teaching hospital. The local ICU provides care for patients from all medical and surgical fields. All patients undergoing extracorporeal membrane oxygenation (ECMO) support and intravenous teicoplanin treatment were eligible for study inclusion from 1.1.2010 to 19.07.2023. Patients were included irrespective of the admitting diagnosis and independent of the ECMO configuration (veno-venous, veno-arterial or others with, e.g., multiple cannulation sites). Patients aged < 18 years were excluded. Other exclusion criteria were documented verbal or written refusal to participate in this study. Patients were also excluded if teicoplanin was not administered for any portion of the ECMO treatment period (e.g., if given only before or after the ECMO treatment period) or if no trough levels were obtained during ECMO support.
# Data were collected with the use of two in-hospital electronic medical records databases, the KISIM (Cistec AG, Zurich, Switzerland) and the Patient Data Management System (PDMS) MetaVision (iMDsoft, Dusseldorf, Germany). Collected data included baseline demographic data (including age, gender and body mass index), comorbidities (including cardiovascular conditions, pulmonary diseases, renal insufficiency) and immunosuppression (including patients with prior organ transplantation), ICU admitting diagnoses, and the indication for teicoplanin treatment (empiric vs. targeted). Moreover, ICU treatment modalities and scores (e.g., organ support and scores such as the Sequential Organ Failure Assessment Score SOFA and the Simplified Acute Physiology Score SAPS II) and patient outcomes (including ICU length of stay and survival) were gathered. Teicoplanin trough levels and dosages over time were obtained from the medical records (see below).
# In our hospital, intravenous teicoplanin is normally administered for empiric or targeted coverage of Gram-positive microorganisms. The standard loading dose is 400 mg infused at 0 h, 12 h and 24 h. Thereafter, 400 mg are administered every 24 h. Measurement of teicoplanin trough levels (TCtrough) is recommended prior to the fifth dose and this also applies to dose adjustments. In case of renal impairment, TCtrough levels are recommended to be measured prior to the second dose, in order to detect potential overdosing early. If the estimated glomerular filtration rate (eGFR) is subnormal, teicoplanin starting dosage is adjusted (eGFR 40–60 ml/min: 200 mg/24 h, eGFR < 40 ml/min: 100 mg/24 h).
# In case the patient is undergoing continuous renal replacement therapy, 200–400 mg teicoplanin every 24 h are recommended. In general, TCtrough of 10–30 mg/l are targeted. TCtrough < 10 mg/l are considered insufficient, whereas TCtrough > 30 mg/l are considered toxic. In case TCtrough are not within the target ranges, dose adaptations can be prescribed by the clinicians in charge. In case a measured TCtrough is toxic (i.e., > 30 mg/l), no more teicoplanin is administered, however TCtrough are measured on a daily basis. […] After increasing the dose, subsequent teicoplanin levels are again measured prior to the fifth dose or prior to the second dose in case of renal impairment, respectively. […]
# [2] = Adverse reactions to teicoplanin in critically ill patients on ECMO; assay type: in vivo, human; settings: all 23 included patients on ECMO, i.v. teicoplanin
# Text: The primary outcome of this study was the proportion of patients with insufficient or toxic TCtrough during ECMO support. Secondary outcomes included the observed TCtrough and teicoplanin dosages over time during ECMO support and dependent on the presence of continuous renal replacement therapy (CRRT), as well as the occurrence of side effects (such as hemotoxicity, hepatotoxicity or skin changes) leading to discontinuation of teicoplanin treatment.
# [3] = cited from earlier work
# Text: Recently, more attention has been drawn to antimicrobial serum levels and dosing in patients receiving ECMO treatment. While marked concentration variability during ECMO treatment has been observed for many common antimicrobials used in the ICU including meropenem, cefepime, ceftriaxone, piperacillin or vancomycin [14], data for teicoplanin are scarce so far.
# [4] = human, in vivo; cited from earlier work
# Experimental: Chen et al. focused on the effect of applying high loading doses in 11 patients receiving veno-arterial ECMO treatment. In their study, four loading doses greater than 10 mg/kg were applied within the first 72 h. Before the application of the maintenance dose, the authors reported adequate therapeutic TCtrough for severe infections in more than 90% of patients. In our study, the loading dose of 400 mg was markedly lower, which presumably might have contributed to our observed low TCtrough in a significant proportion of patients particularly during the first days of ECMO su ...
substance,measurement,setting,value
Teicoplanin,"TCtrough mean difference, ECMO alone vs ECMO and CRRT","[1]; 95% CI 6–13, p < 0.0001",9 mg/L
same,Influence of ECMO circuit configuration (veno-venous vs. veno-arterial) on TCtrough over time,[1]; Fig. 3,did not have a significant influence
same,TCtrough in patients with ECMO and CRRT,"[1]; critically ill adult ICU patients, i.v. teicoplanin, plasma trough level, ECMO plus continuous renal replacement therapy, median [IQR 5–16]",9 mg/L
same,TCtrough in patients with ECMO treatment alone,"[1]; critically ill adult ICU patients, i.v. teicoplanin, plasma trough level, ECMO without CRRT, median [IQR 12–24 mg/l]",18 mg/L
same,TCtrough mean difference in relation to oxygenator changes (pre vs. post),"[1]; five cases with available data, 95% CI –12 to 15, p = 0.8108",1.5 mg/L
same,Drug reactions or other adverse reactions to teicoplanin,[2],no drug reactions or other adverse reactions to teicoplanin were observed
same,Loss of teicoplanin within the ECMO circuit,[3]; ex vivo blood-primed ECMO circuits,significant loss of teicoplanin
same,Lowering of central volume of distribution with ECMO treatment,"[3]; population pharmacokinetic model, 10 adult ECMO patients",34%
same,Proportion of patients with adequate therapeutic TCtrough for severe infections before the maintenance dose,[4],more than 90%
